# Active and inactive are the calls of the source. The calls are words filed in the database; no cut-off is given here.
# Columns and labels:
# Format in all cases: cell-based
# [1] = biological target: T1, Voltage-dependent T-type calcium channel subunit alpha-1G (Homo sapiens, UniProt O43497); test: Inhibition of alpha-1G T-type calcium channel expressed in HEK293 cells at 10 uM by electrophysiological method
# [2] = biological target: T1, Voltage-dependent T-type calcium channel subunit alpha-1G; test: Inhibition of alpha-1G T-type calcium channel expressed in HEK293 cells by electrophysiological method
# [3] = biological target: Voltage-dependent T-type calcium channel subunit alpha-1H (Homo sapiens) (UniProt O95180); test: Inhibition of alpha-1H T-type calcium channel Cav3.2 expressed in Xenopus unfertilized oocytes at 100 uM by two-electrode voltage clamp method; details: Oocyte
# Chain of Voltage-dependent T-type calcium channel subunit alpha-1H (Homo sapiens) (O95180 whole entry): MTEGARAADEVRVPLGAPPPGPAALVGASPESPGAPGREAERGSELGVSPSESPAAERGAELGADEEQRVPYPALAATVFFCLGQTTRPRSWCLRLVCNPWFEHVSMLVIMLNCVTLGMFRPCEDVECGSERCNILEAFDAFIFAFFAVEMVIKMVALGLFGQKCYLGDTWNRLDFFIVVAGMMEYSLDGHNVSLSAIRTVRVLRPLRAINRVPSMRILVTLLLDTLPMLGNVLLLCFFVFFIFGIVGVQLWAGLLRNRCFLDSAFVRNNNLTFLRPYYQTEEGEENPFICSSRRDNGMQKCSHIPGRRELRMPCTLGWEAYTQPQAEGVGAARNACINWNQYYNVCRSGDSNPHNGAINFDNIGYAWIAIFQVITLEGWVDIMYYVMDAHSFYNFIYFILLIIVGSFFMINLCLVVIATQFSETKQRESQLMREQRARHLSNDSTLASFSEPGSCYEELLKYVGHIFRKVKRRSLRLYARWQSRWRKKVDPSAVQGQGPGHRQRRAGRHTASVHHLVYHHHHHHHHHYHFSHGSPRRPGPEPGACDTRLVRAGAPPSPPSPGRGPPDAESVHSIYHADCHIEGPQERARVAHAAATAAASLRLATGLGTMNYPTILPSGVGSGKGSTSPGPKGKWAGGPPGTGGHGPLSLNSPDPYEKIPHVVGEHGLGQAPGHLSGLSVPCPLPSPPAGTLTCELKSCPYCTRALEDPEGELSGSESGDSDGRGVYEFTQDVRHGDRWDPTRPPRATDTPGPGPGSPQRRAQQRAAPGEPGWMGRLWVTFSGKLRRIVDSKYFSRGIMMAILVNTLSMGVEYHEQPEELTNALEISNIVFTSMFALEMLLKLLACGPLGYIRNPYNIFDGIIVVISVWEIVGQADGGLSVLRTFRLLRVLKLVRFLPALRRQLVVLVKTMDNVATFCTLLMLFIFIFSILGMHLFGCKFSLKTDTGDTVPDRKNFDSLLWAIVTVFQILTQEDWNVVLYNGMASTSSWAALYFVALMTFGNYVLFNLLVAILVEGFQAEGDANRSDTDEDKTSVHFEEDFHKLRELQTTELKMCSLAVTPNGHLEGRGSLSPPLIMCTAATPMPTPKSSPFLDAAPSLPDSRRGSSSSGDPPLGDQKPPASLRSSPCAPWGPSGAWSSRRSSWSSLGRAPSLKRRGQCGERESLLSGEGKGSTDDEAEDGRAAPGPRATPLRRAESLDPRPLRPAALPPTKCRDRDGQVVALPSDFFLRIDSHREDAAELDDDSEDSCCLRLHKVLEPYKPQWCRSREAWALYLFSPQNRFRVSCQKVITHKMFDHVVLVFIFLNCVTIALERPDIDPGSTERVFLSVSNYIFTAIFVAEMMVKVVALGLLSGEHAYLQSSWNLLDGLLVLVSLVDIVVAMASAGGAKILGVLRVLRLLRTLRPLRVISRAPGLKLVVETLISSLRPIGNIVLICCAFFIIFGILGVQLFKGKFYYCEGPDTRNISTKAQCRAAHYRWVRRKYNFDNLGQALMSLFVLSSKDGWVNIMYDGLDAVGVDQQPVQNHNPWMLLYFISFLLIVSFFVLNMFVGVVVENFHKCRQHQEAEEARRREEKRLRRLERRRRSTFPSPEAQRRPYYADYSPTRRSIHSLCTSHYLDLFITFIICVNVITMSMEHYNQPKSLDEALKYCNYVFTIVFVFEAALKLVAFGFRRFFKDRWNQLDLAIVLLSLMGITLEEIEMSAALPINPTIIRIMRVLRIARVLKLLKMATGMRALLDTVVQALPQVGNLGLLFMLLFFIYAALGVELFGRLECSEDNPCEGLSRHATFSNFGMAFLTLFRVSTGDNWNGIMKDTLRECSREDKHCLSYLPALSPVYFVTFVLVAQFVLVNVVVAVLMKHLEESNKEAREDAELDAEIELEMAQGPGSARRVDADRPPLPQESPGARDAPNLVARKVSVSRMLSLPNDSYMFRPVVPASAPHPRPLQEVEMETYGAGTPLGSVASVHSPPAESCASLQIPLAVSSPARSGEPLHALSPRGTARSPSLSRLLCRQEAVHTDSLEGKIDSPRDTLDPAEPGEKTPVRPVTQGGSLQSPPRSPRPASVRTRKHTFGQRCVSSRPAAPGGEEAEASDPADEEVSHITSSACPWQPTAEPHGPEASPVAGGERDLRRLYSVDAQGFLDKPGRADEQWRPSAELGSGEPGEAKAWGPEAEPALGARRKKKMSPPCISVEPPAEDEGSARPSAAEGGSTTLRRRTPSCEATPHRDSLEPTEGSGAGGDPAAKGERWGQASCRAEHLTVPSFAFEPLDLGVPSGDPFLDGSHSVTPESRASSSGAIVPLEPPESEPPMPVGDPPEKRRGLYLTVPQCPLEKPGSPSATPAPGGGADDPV
# [4] = Inhibition of alpha-1B N-type calcium channel expressed in HEK293 cells by electrophysiological method
# T1 sequence (O43497 whole entry): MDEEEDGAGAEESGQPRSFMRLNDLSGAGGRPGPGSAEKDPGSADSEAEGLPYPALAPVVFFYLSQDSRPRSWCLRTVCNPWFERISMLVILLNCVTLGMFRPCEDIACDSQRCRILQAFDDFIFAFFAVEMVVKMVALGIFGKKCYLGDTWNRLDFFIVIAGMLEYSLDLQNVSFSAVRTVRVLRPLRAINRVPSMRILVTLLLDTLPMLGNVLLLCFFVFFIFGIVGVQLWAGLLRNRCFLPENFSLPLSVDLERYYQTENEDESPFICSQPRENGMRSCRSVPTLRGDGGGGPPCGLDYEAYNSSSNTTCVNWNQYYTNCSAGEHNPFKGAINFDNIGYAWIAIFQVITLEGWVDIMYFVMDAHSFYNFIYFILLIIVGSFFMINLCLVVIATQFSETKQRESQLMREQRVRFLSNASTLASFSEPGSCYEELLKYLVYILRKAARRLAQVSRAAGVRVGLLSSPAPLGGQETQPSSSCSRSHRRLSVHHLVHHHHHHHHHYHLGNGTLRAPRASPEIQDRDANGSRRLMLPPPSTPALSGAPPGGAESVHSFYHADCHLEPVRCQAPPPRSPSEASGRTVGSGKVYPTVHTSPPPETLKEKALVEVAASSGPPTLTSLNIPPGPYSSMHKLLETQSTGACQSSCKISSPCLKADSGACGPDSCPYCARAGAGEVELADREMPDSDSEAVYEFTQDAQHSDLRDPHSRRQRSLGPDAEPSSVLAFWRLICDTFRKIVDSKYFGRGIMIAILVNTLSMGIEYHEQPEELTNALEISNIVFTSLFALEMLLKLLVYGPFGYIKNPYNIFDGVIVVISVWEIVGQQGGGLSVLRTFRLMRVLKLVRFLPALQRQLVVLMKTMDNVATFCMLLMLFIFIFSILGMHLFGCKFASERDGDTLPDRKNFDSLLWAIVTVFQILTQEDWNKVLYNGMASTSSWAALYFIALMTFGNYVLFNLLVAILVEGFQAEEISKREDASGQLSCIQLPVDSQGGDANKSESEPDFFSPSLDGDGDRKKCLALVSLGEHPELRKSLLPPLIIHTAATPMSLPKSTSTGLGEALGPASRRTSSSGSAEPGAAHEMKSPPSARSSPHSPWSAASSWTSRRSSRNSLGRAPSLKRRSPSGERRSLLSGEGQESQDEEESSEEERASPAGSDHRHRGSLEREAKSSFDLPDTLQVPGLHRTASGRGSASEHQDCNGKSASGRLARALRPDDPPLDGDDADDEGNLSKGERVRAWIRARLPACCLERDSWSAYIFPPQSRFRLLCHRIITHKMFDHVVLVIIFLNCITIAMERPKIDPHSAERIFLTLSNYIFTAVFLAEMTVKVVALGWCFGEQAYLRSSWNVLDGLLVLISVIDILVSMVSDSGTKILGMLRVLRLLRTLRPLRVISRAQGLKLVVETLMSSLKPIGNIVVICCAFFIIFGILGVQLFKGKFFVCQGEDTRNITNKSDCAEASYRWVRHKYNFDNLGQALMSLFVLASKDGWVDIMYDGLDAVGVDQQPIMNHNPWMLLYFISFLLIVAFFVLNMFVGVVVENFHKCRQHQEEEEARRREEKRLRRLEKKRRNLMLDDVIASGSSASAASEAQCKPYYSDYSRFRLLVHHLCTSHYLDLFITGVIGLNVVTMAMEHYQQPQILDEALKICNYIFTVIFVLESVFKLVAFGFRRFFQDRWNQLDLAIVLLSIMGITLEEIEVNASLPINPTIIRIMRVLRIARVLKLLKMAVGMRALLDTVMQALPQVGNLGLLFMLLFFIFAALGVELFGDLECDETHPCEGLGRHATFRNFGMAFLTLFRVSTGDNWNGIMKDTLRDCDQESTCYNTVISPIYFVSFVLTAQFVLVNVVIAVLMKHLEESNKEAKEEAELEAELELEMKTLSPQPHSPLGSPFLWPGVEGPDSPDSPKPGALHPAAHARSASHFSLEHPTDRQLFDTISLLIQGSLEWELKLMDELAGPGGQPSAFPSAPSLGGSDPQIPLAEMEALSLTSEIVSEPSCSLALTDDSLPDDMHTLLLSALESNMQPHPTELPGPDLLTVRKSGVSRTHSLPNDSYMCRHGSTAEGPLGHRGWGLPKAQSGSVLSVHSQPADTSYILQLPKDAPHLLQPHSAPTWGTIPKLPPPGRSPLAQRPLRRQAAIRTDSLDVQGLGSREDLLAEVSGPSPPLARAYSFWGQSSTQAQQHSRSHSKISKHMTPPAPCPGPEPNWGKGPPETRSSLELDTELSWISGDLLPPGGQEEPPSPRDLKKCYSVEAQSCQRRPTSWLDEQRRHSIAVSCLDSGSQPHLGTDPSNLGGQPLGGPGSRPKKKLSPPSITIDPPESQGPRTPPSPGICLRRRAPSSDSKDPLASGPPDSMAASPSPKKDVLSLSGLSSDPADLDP
SMILES,inhibition [3],further results
CCCCN(C)CCNC(=O)c1ccc2c(=O)n(Cc3ccc(Cl)cc3)c(=S)[nH]c2c1,–,inhibition [1]: 34.3%; IC50 [2]: 11.4 µM
O=C(CCN1C(=O)c2ccccc2C1=O)N1CCN(C(c2ccccc2)c2ccccc2)CC1,43.3%,–
O=C(NCCCn1ccnc1)c1ccc2c(=O)n(-c3ccc(F)c(Cl)c3)c(=S)[nH]c2c1,–,Activity [3]: inactive
FC(F)(F)c1cccc(N2CCN(CCNCc3cc(-c4ccccc4C(F)(F)F)no3)CC2)c1,–,IC50 [2]: 1.02 µM
COC(=O)c1ccc(S(=O)(=O)N2CCN(C(c3ccccc3)c3ccccc3)CC2)n1C,–,Activity [3]: inactive
CCN(CC)CCNC(=O)c1cn(-c2ccc(Cl)cc2)c(=O)c2ccccc12,13%,–
O=C(NCCCN1CCOCC1)c1ccc2c(=O)n(-c3cccc(C(F)(F)F)c3)c(=S)[nH]c2c1,15.9%,–
COc1cccc(NC2=C3C(=O)c4ccccc4C4ON=C(C(N5CCN(Cc6cc(Cl)ccc6OC)CC5)=C2)C34)c1 (stereo not given),16.1%,–
O=C1c2ccccc2C(=O)N1CC#CCN1CCN(C(c2ccccc2)c2ccccc2)CC1,–,Activity [3]: inactive
Cc1ccc(CSc2nc3cc(C(=O)NCCCN4CCOCC4)ccc3c(=O)n2-c2ccc(F)cc2)cc1,–,Activity [3]: inactive
O=C1CC(N2CCN(C(c3ccccc3)c3ccccc3)CC2)C(=O)N1c1ccc(Cl)c(C(F)(F)F)c1 (stereo not given),41.8%,–
CC1CCN(CCCNC(=O)c2ccc3c(=O)n(Cc4ccc(Cl)cc4)c(=S)[nH]c3c2)CC1,–,inhibition [1]: 89.2%; IC50 [4]: 6.4 µM; IC50 [2]: 1.1 µM
CCC1CCCCN1CCCNC(=O)c1ccc2c(=O)n(Cc3ccc(Cl)cc3)c(=S)[nH]c2c1 (stereo not given),98.3%,inhibition [1]: 88.3%; IC50 [4]: 2.1 µM
CCN(CC)CCOC(=O)c1ccc(N/C=C2/C(=O)NC(=O)N(CCc3ccccc3)C2=O)cc1,–,Activity [3]: inactive
O=C(NCCCN1CCCC1)c1ccc2c(=O)n(Cc3ccc(Cl)cc3)c(=S)[nH]c2c1,84.1%,inhibition [1]: 85.4%; IC50 [4]: 17.2 µM; IC50 [2]: 1.16 µM
O=C(NC1CCN(Cc2ccccc2)CC1)c1ccc2c(=O)n(Cc3ccc(Cl)cc3)c(=S)[nH]c2c1,–,Activity [3]: inactive
CCN1CCN(CCCNC(=O)c2ccc3c(=O)n(Cc4ccc(Cl)cc4)c(=S)[nH]c3c2)CC1,–,inhibition [1]: 78.9%; IC50 [4]: 7.1 µM; IC50 [2]: 2.53 µM
COc1ccccc1-c1cc(CNCCN2CCN(c3cccc(C(F)(F)F)c3)CC2)on1,–,IC50 [2]: 2.04 µM
COc1ccccc1-c1cc(CNCCN2CCN(c3ccc(C)cc3C)CC2)on1,–,IC50 [2]: 2.02 µM
CN1CCN(C(=O)c2ccc3c(=O)n(Cc4ccc(Cl)cc4)c(=S)[nH]c3c2)CC1,–,inhibition [1]: 51.4%; IC50 [2]: 11.4 µM

SMILES,inhibition [3],further results
CC1CCN(CCNC(=O)c2ccc(-n3c(=S)[nH]c4ccccc4c3=O)cc2)CC1,–,Activity [3]: inactive
O=C(CCC(=O)Nc1nc(-c2cc3cc(Cl)ccc3oc2=O)cs1)NCCCN1CCCC1,43.9%,–
Cc1cccc(N2CCN(CC(=O)Nc3ccc(Cl)cc3C(=O)c3ccccc3Br)CC2C)c1 (stereo not given),9.23%,–
CCN1CCN(c2cc(C)c3cc(NC(=O)/C=C/c4cccc(Cl)c4)ccc3n2)CC1,–,Activity [3]: inactive
CCOC(=O)c1c(C)n(Cc2ccccc2)c2ccc(OCC(O)CN3CCN(Cc4ccccc4)CC3)cc12 (stereo not given),8.83%,–
CC1CC(C)CN(CCCNc2ccc(C(=O)Nc3ccc(C(F)(F)F)cc3)cc2[N+](=O)[O-])C1 (stereo not given),56%,–
O=C(CN(c1cccc([N+](=O)[O-])c1)S(=O)(=O)c1ccccc1)N1CCN(Cc2ccccc2)CC1,42.5%,–
O=C(CSC1CN(C(c2ccccc2)c2ccccc2)C1)NNC(=O)c1ccc(Cl)cc1,28.3%,–
O=C1CC(N2CCN(C(c3ccccc3)c3ccc(Cl)cc3)CC2)C(=O)N1c1cccc(Cl)c1 (stereo not given),16.6%,–
OC(CN1CCN(C(c2ccccc2)c2ccccc2)CC1)Oc1cccc(C(F)(F)F)c1 (stereo not given),58.3%,–
O=C(CN1CCN(C2c3ccccc3-c3ccccc32)CC1)Nc1cc(C(F)(F)F)ccc1Cl,–,Activity [3]: inactive
CN(C)CCNC(=O)c1ccc2c(=O)n(Cc3ccc(Cl)cc3)c(=S)[nH]c2c1,–,inhibition [1]: 43.5%; IC50 [2]: 53.5 µM
Cc1ccc(N2CCN(CCNCc3cc(-c4ccccc4C(F)(F)F)no3)CC2)c(C)c1,–,IC50 [2]: 1.53 µM
CN(CCCNC(=O)c1ccc2c(=O)n(Cc3ccc(Cl)cc3)c(=S)[nH]c2c1)Cc1ccccc1,–,inhibition [1]: 37.5%; IC50 [2]: 4.69 µM
CCN1C(N2CCCCC2)=Nc2ccccc2C1CC(=O)NCc1ccc(NS(=O)(=O)c2ccc(C)cc2)cc1 (stereo not given),–,IC50 [2]: 0.96 µM
Cc1ccc(C(=O)Oc2ccc(NC3=NS(=O)(=O)c4ccccc43)cc2CN2CCCCC2)cc1,13.5%,–
O=C(NCCCN1CCCCCC1)c1ccc2c(=O)n(Cc3ccc(Cl)cc3)c(=S)[nH]c2c1,–,inhibition [1]: 85.4%; IC50 [4]: 5.8 µM; IC50 [2]: 1.41 µM
O=C1c2ccccc2C(=O)N1CCCN1CCN(Cc2c(F)cccc2Cl)CC1,8.1%,–
CN(c1ccc(Br)cc1)S(=O)(=O)c1ccc2[nH]cc(C(=O)N3CCN(Cc4ccccc4)CC3)c(=O)c2c1,86.5%,–

# Further lines, with some results ahead:
inhibition [3],SMILES,further results
2.47%,O=C(NCCCn1ccnc1)c1ccc2c(=O)n(-c3ccccc3)c(=S)[nH]c2c1,–
25.7%,CN(CCCNC(=O)c1ccc(-n2c(=S)[nH]c3ccc(Br)cc3c2=O)cc1)Cc1ccccc1,–
34.7%,Cc1ccc(N(CC(O)CN(Cc2ccccc2)Cc2ccccc2)S(=O)(=O)c2ccccc2[N+](=O)[O-])cc1 (stereo not given),–
52.2%,CCN(CC)CCNC(=O)C1c2ccccc2C(=O)N(Cc2ccc(F)cc2)C1c1ccc(OC)cc1 (stereo not given),–
9.54%,CCN(CC)CCNC(=O)c1ccc(CNc2nc(=S)[nH]c3ccccc23)cc1,–
11.4%,O=C(O)c1ccc2c(=O)n(Cc3ccc(CNCCCN4CCN(c5cccc(Cl)c5)CC4)cc3)c(=S)[nH]c2c1,–
7.57%,O=[N+]([O-])c1ccccc1S(=O)(=O)N1CCN(Cc2ccccc2Cl)CC1,–
22%,CCOC(=O)c1c(NC(=O)c2ccc(S(=O)(=O)N(C)c3ccccc3)cc2)sc2c1CCN(CC)C2,–
51.8%,O=C1CC(N2CCN(C(c3ccc(F)cc3)c3ccc(F)cc3)CC2)C(=O)N1c1ccc(Cl)cc1 (stereo not given),–
34.4%,CCN(CC)CCOC(=O)c1ccc(NC(=O)c2cc3ccccc3o2)cc1,–
10.3%,COC(=O)c1ccc2c(=O)n(Cc3ccc(C(=O)N4CCC(N5CCCCC5)CC4)cc3)c(=S)[nH]c2c1,–
15.2%,O=S(=O)(c1ccccc1)N(CC(O)CN(Cc1ccccc1)Cc1ccccc1)c1ccccc1 (stereo not given),–
15.9%,O=C(NCCCN1CCOCC1)c1ccc2c(=O)n(Cc3ccccc3)c(=S)[nH]c2c1,–
15.2%,O=S(=O)(c1cccc2nonc12)N1CCN(C(c2ccccc2)c2ccccc2)CC1,–
37.1%,O=C1CC(N2CCN(C(c3ccc(F)cc3)c3ccc(F)cc3)CC2)C(=O)N1c1ccc(Br)cc1 (stereo not given),–
12.5%,O=C(CN1CCN(C(c2ccccc2)c2ccccc2)CC1)NCc1ccc2c(c1)OCO2,–
41.9%,CCN(CC)CCNC(=O)c1ccc(NC(=O)c2cn(CC)c3nc(C)ccc3c2=O)cc1,–
72.9%,O=C(NCCCN1CCCCC1)c1ccc2c(=O)n(Cc3ccc(Cl)cc3)c(=S)[nH]c2c1,inhibition [1]: 34.3%; IC50 [4]: 8.1 µM; IC50 [2]: 2.08 µM
62.6%,CC1CCN(CCCNC(=O)c2ccc(Cn3c(=S)[nH]c4ccc(Br)cc4c3=O)cc2)CC1,–
12%,O=C(CCN1C(=O)c2ccccc2C1=O)N1CCN(Cc2ccc(Cl)cc2Cl)CC1,–
11.4%,FC(F)(F)c1cccc(N2CCN(Cn3nc(-c4ccccc4)n(-c4ccccc4)c3=S)CC2)c1,–
inactive,O=C(NCCCN1CCN(c2ccccc2F)CC1)c1ccc(CNc2nc(=S)[nH]c3ccccc23)cc1,–
35.3%,CCOC(=O)c1cc2c(c(CSc3nc4ccccc4c(=O)n3CCCN3CCCCC3)c1)OCOC2,–
